Source: US5523314A, “Compounds useful as hypoglycemic agents and for treating Alzheimer's disease” (priority 1994, dated 1996)
Read-outs that look alike come from different tables or passages of the source.

Experiments:
[1] = tested on: blood glucose level; assay: Hypoglycemic activity in obese diabetic mice (Table 1); format: in vivo, male viable yellow obese-diabetic mice; conditions: for response vs control in vivo at 50 mg/kg: Mus musculus, ip, intraperitoneal
Procedure: The hypoglycemic activity of the compounds of the present invention was determined by testing the efficacy of the compounds in vivo in male viable yellow obese-diabetic mice. The test procedure is described in detail below.
Test formulations were prepared by dissolving the test compound in a saline solution containing 2% Emulphor (a polyoxyethylated vegetable oil surfactant from GAP Corp.) to provide the dose level desired. Each test formulation was administered to six viable yellow obese-diabetic mice intraperitoneally at the beginning of the experiment. Blood glucose levels were determined immediately before the first dose and at 2 and 4 hours thereafter using glucose oxidase. A mean was taken of the 6 values obtained before the first dose and at the 2 and 4 hour intervals. In Table 1, Column 1 provides the example number of the test compound, Column 2 provides the dose level of compound tested, and Columns 3 and 4 provide a measurement of the test animal's blood glucose level 2 and 4 hours after test compound administration, respectively, as a percentage of the test animal' s pre-administration blood glucose level.

[2] = biological target: T1, Human liver cathepsin D (Homo sapiens, UniProt P07339); assay: Cathepsin D inhibition, fluorometric assay (Tables 5 and 6); format: biochemical; conditions: for inhibition at 10 µg/mL (stock): Compound Stock Concentration 10.0 μg/ml; for inhibition at 4.15 µg/mL (stock): Compound Stock Concentration 4.15 μg/ml; for ability to inhibit cathepsin D: compared to structurally similar compounds known in the art, in words; for inhibition at 8.3 µg/mL (stock): Compound Stock Concentration 8.3 μg/ml
T1 construct: purchased Athens Research and Technology, Athens, Ga; host or cells: human liver
T1 sequence (P07339 169-412 limits assumed): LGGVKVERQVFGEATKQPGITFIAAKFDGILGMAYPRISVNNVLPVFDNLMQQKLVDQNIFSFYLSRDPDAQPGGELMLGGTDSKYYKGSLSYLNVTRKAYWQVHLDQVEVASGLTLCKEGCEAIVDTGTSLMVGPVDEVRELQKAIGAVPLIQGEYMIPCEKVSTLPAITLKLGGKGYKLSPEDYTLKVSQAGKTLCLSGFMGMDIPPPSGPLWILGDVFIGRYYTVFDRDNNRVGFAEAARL
T1 sequence (P07339 65-161 limits assumed): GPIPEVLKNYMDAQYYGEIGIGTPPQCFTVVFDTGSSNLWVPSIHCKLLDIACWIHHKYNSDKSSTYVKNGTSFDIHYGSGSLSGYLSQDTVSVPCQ
Procedure: Human liver cathepsin D (Athens Research and Technology, Athens, Ga.) was diluted in assay buffer, 200 mM NaOAc, pH 4.5, 150 mM NaCl to 500 ng/mL and then 100 μL of this cathepsin D solution was added to each well of a 96 well plate with the exception of control wells which received just 100 μL of assay buffer. […] Blank and enzyme control wells each received 5 μL of the DMSO vehicle.
After incubation at 37° C. for 30 minutes, cathepsin D activity was terminated by the addition of 100 μL per well of 400 mU/mL microsomal leucine aminopeptidase (EC 3.4.11.2, Sigma, St. Louis, Mo.) in 1M Tris-HCl, pH 8.0.
Following a two hour incubation at 37° C., to allow the aminopeptidase to release the fluorophore, 7-amido-4-methylcoumarin (AMC) from the products of cathepsin D cleavage, the plates were again analyzed in the fluorometer. In order to check for potential false positives, i.e., inhibitors of microsomal leucine aminopeptidase, residual aminopeptidase activity was monitored directly in each well by the addition of 20 μL/well of 2.5 mM Leu-pNA (Bachem Biosciences, Philadelphia, Pa.) in 10% DMSO.

[3] = tested on: blood glucose level; assay: Hypoglycemic activity in normal fed rats (Table 2); format: in vivo, male Sprague Dawley rats; conditions: Rattus norvegicus, 200 mg/kg, oral
Procedure: The procedure used in this test system is described below.
The desired dose level of each test formulation was administered to four rats by oral […] at the beginning of the experiment. Blood glucose levels were determined immediately before the first dose and at 3 and 5 hours thereafter by an enzymatic procedure employing glucose oxidase and peroxidase coupled with a chromogenic oxygen acceptor. A mean was taken of the 4 values obtained before the first dose and at the 3 and 5 hour intervals.

[4] = 2 h, 2 hrs, read-out: Percent of Initial Blood Glucose Level After 2 hrs.
[5] = 4 h, 4 hrs, read-out: Percent of Initial Blood Glucose Level After 4 hrs.
[6] = 3 hrs, read-out: Percent of Initial Blood Glucose Level After 3 hrs.
[7] = 5 hrs, read-out: Percent of Initial Blood Glucose Level After 5 hrs.

Compound	inhibition at 4.15 µg/mL (stock) [2]	IC50 [2]	response vs control in vivo at 50 mg/kg [1, 4]	response vs control in vivo at 50 mg/kg [1, 5]	also measured
CS(=O)(=O)Nc1cccc(C=C2SC(=S)NC2=O)c1 [Example 1, 5-[(3-methanesulfonamidophenyl)methylene]-2-thioxo-4-thiazolidinone]	–	–	82 ± 5%	75 ± 2%	inhibition at 10 µg/mL (stock) [2]: 36%
O=C1NC(=S)SC1=C(c1ccccc1)c1ccccc1 [Example 4, 5-(diphenylmethylene)-2-thioxo-4-thiazolidinone]	–	–	91 ± 4%	72 ± 7%	inhibition at 10 µg/mL (stock) [2]: 50%
O=C1NC(=S)SC1=Cc1ccc(O)cc1 [Example 8, 5-[(4-hydroxyphenyl)methylene]-2-thioxo-4-thiazolidinone]	–	–	94 ± 4%	84 ± 6%	inhibition at 10 µg/mL (stock) [2]: 64%
COc1ccc(C=C2SC(=S)NC2=O)cc1 [Example 18, 5-[(4-methoxyphenyl)methylene]-2-thioxo-4-thiazolidinone]	–	–	89 ± 4%	88 ± 5%	inhibition at 10 µg/mL (stock) [2]: 38%
COc1ccc(C(=C2SC(=S)NC2=O)c2ccccc2)cc1 [Example 21, 5-[(4-methoxyphenyl)phenylmethylene]-2-thioxo-4-thiazolidinone]	40%	–	99 ± 4%	81 ± 6%	–
CC(C)(C)c1cc(C=C2SC(=S)NC2=O)cc(C(C)(C)C)c1O [Example 28, 5-[[3,5-bis(1,1-dimethylethyl)-4-hydroxyphenyl]methylene]-2-thioxo-4-thiazolidinone]	–	3.1 µM	83 ± 9%	79 ± 7%	–
O=C1NC(=S)SC1=Cc1cc(Cl)c(O)c(Cl)c1 [Example 55, 5-[(3,5-dichloro-4-hydroxyphenyl)methylene]-2-thioxo-4-thiazolidinone]	90%	–	81 ± 3%	75 ± 3%	ability to inhibit cathepsin D [2]: surprising ability to inhibit cathepsin D levels
Cc1cc(C=C2SC(=S)NC2=O)cc(C)c1O [Example 62, 5-[(3,5-dimethyl-4-hydroxyphenyl)methylene]-2-thioxo-4-thiazolidinone]	–	–	–	–	response vs control in vivo at 200 mg/kg [3, 6]: 78%; response vs control in vivo at 200 mg/kg [3, 7]: 53%
CCCCCOc1ccc(C=C2SC(=S)N(C)C2=O)cc1OC [Example 65, 5-[(3-methoxy-4-pentoxyphenyl)methylene]-2-thioxo-3-methyl-4-thiazolidinone]	–	–	–	–	response vs control in vivo at 200 mg/kg [3, 6]: 100%; response vs control in vivo at 200 mg/kg [3, 7]: 91%
CCCCCOc1ccc(C=C2SCNC2=O)cc1OC [Example 66, 5-[(3-methoxy-4-pentoxyphenyl)methylene]-4-thiazolidinone]	–	–	–	–	response vs control in vivo at 200 mg/kg [3, 6]: 100%; response vs control in vivo at 200 mg/kg [3, 7]: 86%
O=C1NC(=S)SC1=Cc1cccc2ccccc12 [Example 75, 5-[(1-naphthyl)methylene]-2-thioxo-4-thiazolidinone]	–	–	–	–	inhibition at 10 µg/mL (stock) [2]: 43%
CC(=C1SC(=S)NC1=O)c1ccc2ccccc2c1 [Example 76, 5-[(2-naphthyl)methylmethylene]-2-thioxo-4-thiazolidinone]	–	–	–	–	inhibition at 10 µg/mL (stock) [2]: 32%
CC(=C1SC(=S)NC1=O)c1cccc(Oc2ccccc2)c1 [Example 78, 5-[(3-phenoxyphenyl)methylmethylene]-2-thioxo-4-thiazolidinone]	41%	22.1 µM	–	–	–
CCCCCCCOc1ccc(C=C2SC(=S)N(N)C2=O)cc1OC [Example 80, 5-[(3-methoxy-4-heptoxyphenyl)methylene]-2-thioxo-3-amino-4-thiazolidinone]	–	47 µM	–	–	inhibition at 8.3 µg/mL (stock) [2]: 33%
CN(C)c1ccc(C=C2SC(=S)NC2=O)cc1 [Example 82, 5-[[4-(dimethylamino)phenyl]methylene]-2-thioxo-4-thiazolidinone]	–	–	–	–	inhibition at 10 µg/mL (stock) [2]: 73.5%
CCCCCCCOc1ccc(C=C2SC(=S)N(N(C)C)C2=O)cc1 [Example 83, 5-[(4-heptoxyphenyl)methylene]-2-thioxo-3-dimethylamino-4-thiazolidinone]	47%	–	–	–	–
CS(=O)(=O)Nc1cccc(C=C2SC(=S)N(CC(=O)O)C2=O)c1 [Example 86, 5-[(3-methanesulfonamidophenyl)methylene]-4-oxo-2-thioxo-3-thiazolidine acetic acid]	–	–	–	–	inhibition at 8.3 µg/mL (stock) [2]: 42%
COc1c(C(C)(C)C)cc(C=C2SC(=S)NC2=O)cc1C(C)(C)C [Example 87, 5-[[3,5-bis(1,1-dimethylethyl)-4-methoxyphenyl]methylene]-2-thioxo-4-thiazolidinone]	–	2.2 µM	–	–	–
CCOc1cc(C=C2SC(=S)N(N(C)C)C2=O)cc(CSc2ccccc2)c1O [Example 89]	–	–	–	–	IC50 ([2]; 50% inhibition of cathepsin D): 9.2 µM; inhibition at 8.3 µg/mL (stock) [2]: 71%
CCCCCOc1ccc(C=C2SC(=S)N(CC(=O)O)C2=O)cc1OCCCCC [Example 91, 5-[(3,4-dipentoxyphenyl)methylene]-4-oxo-2-thioxo-3-thiazolidine acetic acid]	72%	9.7 µM	–	–	ability to inhibit cathepsin D [2]: surprising ability to inhibit cathepsin D levels
CCCCCCCOc1ccc(C=C2SC(=S)N(N(C)C)C2=O)cc1OCCCCCCC [Example 93, 5-[(3,4-diheptoxyphenyl)methylene]-2-thioxo-3-dimethylamino-4-thiazolidinone]	–	7.5 µM	–	–	–
CCCCOc1ccc(C=C2SC(=S)N(N(C)C)C2=O)cc1OCCCC [Example 94, 5-[(3,4-dibutoxyphenyl)methylene]-2-thioxo-3-dimethylamino-4-thiazolidinone]	48%	–	–	–	–
C=CCN1C(=O)C(=Cc2ccc(OCCCCCCC)c(OC)c2)SC1=S [Example 95, 5-[(3-methoxy-4-heptoxyphenyl)methylene]-2-thioxo-3-(2-propenyl)-4-thiazolidinone]	–	–	–	–	inhibition at 8.3 µg/mL (stock) [2]: 36%

Continued, in another order:

inhibition at 4.15 µg/mL (stock) [2]	IC50 [2]	Compound	response vs control in vivo at 50 mg/kg [1, 4]	response vs control in vivo at 50 mg/kg [1, 5]	also measured
57%	8.9 µM	O=C1NC(=S)SC1=Cc1ccc2ccccc2c1 [Example 35, 5-[(2-naphthalenyl)methylene)-2-thioxo-4-thiazolidinone]	83 ± 5%	85 ± 6%	–
40%	–	CCCOc1cc(C=C2SC(=S)NC2=O)ccc1OCC [Example 50, 5-[(3-propoxy-4-ethoxyphenyl)methylene]-2-thioxo-4-thiazolidinone]	75 ± 5%	69 ± 5%	ability to lower blood glucose levels in mammals ([1]; compared to structurally similar compounds known in the art, in words): surprising ability to lower blood glucose levels in mammals
51%	–	CCOc1cc(C=C2SC(=S)N(C3CCCCC3)C2=O)ccc1O [Example 84, 5-[(3-ethoxy-4-hydroxyphenyl)methylene]-2-thioxo-3-cyclohexyl-4-thiazolidinone]	–	–	–
–	14.3 µM	CN1C(=O)C(=Cc2cc(C(C)(C)C)c(O)c(C(C)(C)C)c2)SC1=S [Example 85, 5-[[3,5-bis(1,1-dimethylethyl)-4-hydroxyphenyl]methylene]-2-thioxo-3-methyl-4-thiazolidinone]	–	–	–
67%	11.2 µM	CCOc1cc(C=C2SC(=S)N(C)C2=O)ccc1O [Example 88, 5-[(3-ethoxy-4-hydroxyphenyl)methylene]-2-thioxo-3-methyl-4-thiazolidinone]	–	–	inhibition at 8.3 µg/mL (stock) [2]: 82%; ability to inhibit cathepsin D [2]: surprising ability to inhibit cathepsin D levels
79%	7.7 µM	CCOc1cc(C=C2SC(=S)N(N(C)C)C2=O)ccc1O [Example 90, 5-[(3-ethoxy-4-hydroxyphenyl)methylene]-2-thioxo-3-dimethylamino-4-thiazolidinone]	–	–	inhibition at 8.3 µg/mL (stock) [2]: 92%; ability to inhibit cathepsin D [2]: surprising ability to inhibit cathepsin D levels
74%	3.9 µM	CN1C(=O)C(=Cc2ccc(O)c(C(C)(C)C)c2)SC1=S [Example 92, 5-[[3-(1,1-dimethylethyl)-4-hydroxyphenyl]methylene]-2-thioxo-3-methyl-4-thiazolidinone]	–	–	ability to inhibit cathepsin D [2]: surprising ability to inhibit cathepsin D levels
